Assay results published in patent publication US20220135591A1, “HETEROCYCLIC COMPOUNDS AS INHIBITORS OF MONOACYLGLYCEROL LIPASE (MAGL)” (Hoffmann-La Roche Inc., priority 2019, published 2022).

These molecules were tested against T1, MAGL (recombinant wild-type) (Homo sapiens, UniProt Q99685) (assay: 4-NPA assay: MAGL inhibitory activity by hydrolysis of 4-nitrophenylacetate, absorbance at 405 nm). Settings: 4-NPA assay (values without footnote [b]).
T1 sequence (Q99685 1-303): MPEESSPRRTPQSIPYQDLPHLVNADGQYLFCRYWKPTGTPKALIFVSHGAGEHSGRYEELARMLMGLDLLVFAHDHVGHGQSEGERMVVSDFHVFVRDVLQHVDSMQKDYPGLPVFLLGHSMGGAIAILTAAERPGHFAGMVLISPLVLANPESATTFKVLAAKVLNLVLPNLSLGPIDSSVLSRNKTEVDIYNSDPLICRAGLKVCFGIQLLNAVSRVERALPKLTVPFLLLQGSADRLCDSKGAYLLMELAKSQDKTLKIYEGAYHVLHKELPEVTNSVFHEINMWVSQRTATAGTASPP
Assay type: biochemical
Outline: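 Final assay: 1 nM MAGL and 300 μM 4-nitrophenylacetate in 50 mM Tris, 1 mM EDTA, at RT. Compounds (25 μM–1.7 nM, 3-fold steps) were preincubated 15 min with enzyme. A405 was read 5 min after substrate addition and again after 80 min; activity was taken as the difference between reads.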

IC50 [nM] | SMILES
13100 | Cc1ccc2oc(N3CCN(C(=O)c4cnc(N5CC6(CCC6(F)F)C5)cc4C)CC3)nc2n1 [Example 221, (6-(5,5-difluoro-2-azaspiro[3.3]heptan-2-yl)-4-methylpyridin-3-yl)(4-(5-methyloxazolo[4,5-b]pyridin-2-yl)piperazin-1-yl)methanone]
794 | Cc1ccc2oc(N3CCN(C(=O)c4cnc(N5CCC6(C5)CC6(F)F)nc4)CC3)nc2n1 (stereo not drawn) [Example 222, (2-(1,1-difluoro-5-azaspiro[2.4]heptan-5-yl)pyrimidin-5-yl)(4-(5-methyloxazolo[4,5-b]pyridin-2-yl)piperazin-1-yl)methanone]
4460 | Cc1ccc2oc(N3CCN(C(=O)c4cnc(N5CCC6(C5)CC6(F)F)cc4C)CC3)nc2n1 (stereo not drawn) [Example 223, (6-(1,1-difluoro-5-azaspiro[2.4]heptan-5-yl)-4-methylpyridin-3-yl)(4-(5-methyloxazolo[4,5-b]pyridin-2-yl)piperazin-1-yl)methanone]
90 | Cc1ccc2oc(N3CCN(C(=O)c4cnc(N5CC(OC(C)C(F)(F)F)C5)c(F)c4)CC3)nc2n1 (stereo not drawn) [Example 224, (5-fluoro-6-(3-((1,1,1-trifluoropropan-2-yl)oxy)azetidin-1-yl)pyridin-3-yl)(4-(5-methyloxazolo[4,5-b]pyridin-2-yl)piperazin-1-yl)methanone]
244 | Cc1ccc2oc(N3CCN(C(=O)c4cnc(N5CCC6(C5)CC6(F)F)c(C)c4)CC3)nc2n1 (stereo not drawn) [Example 225, (6-(1,1-difluoro-5-azaspiro[2.4]heptan-5-yl)-5-methylpyridin-3-yl)(4-(5-methyloxazolo[4,5-b]pyridin-2-yl)piperazin-1-yl)methanone]
38 | Cc1ccc2oc(N3CCN(C(=O)c4cnc(N5CC(OC(C)C(F)(F)F)C5)c(Cl)c4)CC3)nc2n1 (stereo not drawn) [Example 226, (5-chloro-6-(3-((1,1,1-trifluoropropan-2-yl)oxy)azetidin-1-yl)pyridin-3-yl)(4-(5-methyloxazolo[4,5-b]pyridin-2-yl)piperazin-1-yl)methanone]
62 | Cc1ccc2oc(N3CCN(C(=O)c4cnc(N5CCC6(C5)CC6(F)F)c(Cl)c4)CC3)nc2n1 (stereo not drawn) [Example 227, (5-chloro-6-(1,1-difluoro-5-azaspiro[2.4]heptan-5-yl)pyridin-3-yl)(4-(5-methyloxazolo[4,5-b]pyridin-2-yl)piperazin-1-yl)methanone]
152 | Cc1ccc2oc(N3CCN(C(=O)c4cnc(N5CCC6(C5)CC6(F)F)c(F)c4)CC3)nc2n1 (stereo not drawn) [Example 228, (6-(1,1-difluoro-5-azaspiro[2.4]heptan-5-yl)-5-fluoropyridin-3-yl)(4-(5-methyloxazolo[4,5-b]pyridin-2-yl)piperazin-1-yl)methanone]
35 | CC(OC1CN(c2ncc(C(=O)N3CCN(c4nc5nc(Cl)ccc5o4)CC3)cc2F)C1)C(F)(F)F (stereo not drawn) [Example 229, (4-(5-chlorooxazolo[4,5-b]pyridin-2-yl)piperazin-1-yl)(5-fluoro-6-(3-((1,1,1-trifluoropropan-2-yl)oxy)azetidin-1-yl)pyridin-3-yl)methanone]
56 | O=C(c1cnc(N2CCC3(C2)CC3(F)F)c(F)c1)N1CCN(c2nc3nc(Cl)ccc3o2)CC1 (stereo not drawn) [Example 230, (4-(5-chlorooxazolo[4,5-b]pyridin-2-yl)piperazin-1-yl)(6-(1,1-difluoro-5-azaspiro[2.4]heptan-5-yl)-5-fluoropyridin-3-yl)methanone]
301 | CC(C)(C)Cc1nc(-c2ccc(C(=O)N3CCN(c4nc5nc(C#N)ccc5o4)CC3)cc2)no1 [Example 260, 2-(4-(4-(5-neopentyl-1,2,4-oxadiazol-3-yl)benzoyl)piperazin-1-yl)oxazolo[4,5-b]pyridine-5-carbonitrile]
40 | CC(C)(C)Cc1nc(-c2ccc(C(=O)N3CCN(c4nc5nc(C(F)(F)F)ccc5o4)CC3)cc2)no1 [Example 261, (4-(5-neopentyl-1,2,4-oxadiazol-3-yl)phenyl)(4-(5-(trifluoromethyl)oxazolo[4,5-b]pyridin-2-yl)piperazin-1-yl)methanone]
65 | CC(F)(F)Cc1nc(-c2ccc(C(=O)N3CCN(c4nc5nc(Cl)ccc5o4)CC3)cc2)no1 [Example 262, [4-(5-chlorooxazolo[4,5-b]pyridin-2-yl)piperazin-1-yl]-[4-[5-(2,2-difluoropropyl)-1,2,4-oxadiazol-3-yl]phenyl]methanone]
181 | CCCCc1nc2ccc(C(=O)N3CCN(c4nc5nc(C)ccc5o4)CC3)cc2o1 [Example 263, (2-butyl-1,3-benzoxazol-6-yl)-[4-(5-methyloxazolo[4,5-b]pyridin-2-yl)piperazin-1-yl]methanone]
59 | CC(C)(F)Cc1nc(-c2ccc(C(=O)N3CCN(c4nc5nc(Cl)ccc5o4)CC3)cc2)no1 [Example 264, [4-(5-chlorooxazolo[4,5-b]pyridin-2-yl)piperazin-1-yl]-[4-[5-(2-fluoro-2-methyl-propyl)-1,2,4-oxadiazol-3-yl]phenyl]methanone]
30 | C=C(C)Cc1nc(-c2ccc(C(=O)N3CCN(c4nc5nc(Cl)ccc5o4)CC3)cc2)no1 [Example 265, [4-(5-chlorooxazolo[4,5-b]pyridin-2-yl)piperazin-1-yl]-[4-[5-(2-methylallyl)-1,2,4-oxadiazol-3-yl]phenyl]methanone]
101 | CC(C)=Cc1nc(-c2ccc(C(=O)N3CCN(c4nc5nc(Cl)ccc5o4)CC3)cc2)no1 [Example 266, [4-(5-chlorooxazolo[4,5-b]pyridin-2-yl)piperazin-1-yl]-[4-[5-(2-methylprop-1-enyl)-1,2,4-oxadiazol-3-yl]phenyl]methanone]
2420 | Cc1ccc2oc(N3CCN(C(=O)N4CC5(C4)CN(S(=O)(=O)c4cccc(Cl)c4)C5)CC3)nc2n1 [Example 305, [2-(3-chlorophenyl)sulfonyl-2,6-diazaspiro[3.3]heptan-6-yl]-[4-(5-methyloxazolo[4,5-b]pyridin-2-yl)piperazin-1-yl]methanone]
